Here are results for 16 compounds from patent publication US11297838B2, “Pesticidal compositions and methods” (CORTEVA AGRISCIENCE LLC, priority 2018, dated 2022).

Structures are written as SMILES. Where two headings read alike, the source gives them in different places.

For experiment [1], the system named is Cabbage Looper (Trichloplusia ni, TRIPNI). Description: Insecticidal test for cabbage looper (CL), 128-well diet tray assay. It is filed as in vivo. To be noted: Trichoplusia ni, 168 h, read-out: CL rating, % Control (or Mortality). As to the method: Insecticidal Test for Cabbage Looper (Trichloplusia ni, TRIPNI) (“CL”)
Bioassays on cabbage looper (CL; Trichloplusia ni: Lepidoptera) are conducted using a 128-well diet tray assay. One to five second instar CL larvae are placed in each well (3 mL) of the diet tray that had been previously filled with 1 mL of artificial diet to which 50 μg/cm^2 of the test compound (dissolved in 50 μL of 90:10 acetone-water mixture) had been applied (to each of eight wells) and then allowed to dry. Trays are covered with a clear self-adhesive cover, vented to allow gas exchange, and held at 25° C., 14:10 light-dark for five to seven days. Percent mortality is recorded for the larvae in each well; activity in the eight wells is then averaged. In the reporting of the results, the “BAW & CL Rating Table” was used.

Experiment [2] deals with Beet Armyworm (Spodoptera exigua, LAPHEG). Briefly: Insecticidal test for beet armyworm (BAW), 128-well diet tray assay. Format: in vivo. To be noted: 168 h, read-out: BAW rating, % Control (or Mortality). As to the method: Insecticidal Test for Beet Armyworm (Spodoptera exigua, LAPHEG) (“BAW”)
Bioassays on beet armyworm (BAW; Spodoptera exigua: Lepidoptera) are conducted using a 128-well diet tray assay. One to five second instar BAW larvae are placed in each well (3 mL) of the diet tray that had been previously filled with 1 mL of artificial diet to which 50 μg/cm^2 of the test compound (dissolved in 50 μL of 90:10 acetone-water mixture) had been applied (to each of eight wells) and then allowed to dry. Trays are covered with a clear self-adhesive cover, vented to allow gas exchange, and held at 25° C., 14:10 light-dark for five to seven days. Percent mortality is recorded for the larvae in each well; activity in the eight wells is then averaged. In the reporting of the results, the “BAW & CL Rating Table” was used.

Where [3] appears, read: 50 μg/cm^2 on artificial diet, second instar larvae, five to seven days, 25° C.

On to `Cc1ccc(C(C)C)c(N2C(=O)CS/C2=N\C(=O)OCC(F)c2ccc(-c3ncn(-c4ccc(OC(F)(F)F)cc4)n3)cc2)c1` (centres unmarked) [A20, 2-fluoro-2-(4-(1-(4-(trifluoromethoxy)phenyl)-1H-1,2,4-triazol-3-yl)phenyl)ethyl (Z)-(3-(2-isopropyl-5-methylphenyl)-4-oxothiazolidin-2-ylidene)carbamate], for which the mortality at 50 µg/cm2 in experiment [1] (setting [3]) and in experiment [2] (setting [3]) was 50 to 100% in each case.
Consider `Cc1ccc(C(C)C)c(-n2ccs/c2=N\C(=O)OCCc2ccc(-c3ncn(-c4ccc(OC(F)(F)F)cc4)n3)cc2)c1` [A53, 4-(1-(4-(Trifluoromethoxy)phenyl)-1H-1,2,4-triazol-3-yl)phenethyl (Z)-(3-(2-isopropyl-5-methylphenyl)thiazol-2(3H)-ylidene)carbamate], for which the mortality at 50 µg/cm2 in experiment [1] (setting [3]) and in experiment [2] (setting [3]) was 50 to 100% each time.
`COCc1ccccc1N1C(=O)CS/C1=N\C(=O)OCCc1ccc(-c2ncn(-c3ccc(OC(F)(F)F)cc3)n2)cc1` [A27, 4-(1-(4-(trifluoromethoxy)phenyl)-1H-1,2,4-triazol-3-yl)phenethyl (Z)-(3-(2-(methoxymethyl)phenyl)-4-oxothiazolidin-2-ylidene)carbamate]: the mortality at 50 µg/cm2 in experiment [1] (setting [3]) and in experiment [2] (setting [3]) was 50 to 100% in each case.
As to `CCOc1ccccc1N1C(=O)CS/C1=N\C(=O)OCC(F)c1ccc(-c2ncn(-c3ccc(OC(F)(F)F)cc3)n2)cc1` (centres unmarked) [A40, 2-Fluoro-2-(4-(1-(4-(trifluoromethoxy)phenyl)-1H-1,2,4-triazol-3-yl)phenyl)ethyl (Z)-(3-(2-ethoxyphenyl)-4-oxothiazolidin-2-ylidene)carbamate], the mortality at 50 µg/cm2 in experiment [1] (setting [3]) and in experiment [2] (setting [3]) was 50 to 100% in each case.
For the compound `CCC(C)Oc1ccc(C)cc1N1C(=O)CS/C1=N\C(=O)OCCc1ccc(-c2ncn(-c3ccc(OC(F)(F)F)cc3)n2)cc1` (centres unmarked) [A35, 4-(1-(4-(Trifluoromethoxy)phenyl)-1H-1,2,4-triazol-3-yl)phenethyl (Z)-(3-(2-(sec-butoxy)-5-methylphenyl)-4-oxothiazolidin-2-ylidene)carbamate], the mortality at 50 µg/cm2 in experiment [1] (setting [3]) and in experiment [2] (setting [3]) was 50 to 100% each time.
As for `CCc1cccc(C)c1N1C(=O)CS/C1=N\C(=O)OCCc1ccc(-c2ncn(-c3ccc(OC(F)(F)F)cc3)n2)cc1` [A32, 4-(1-(4-(Trifluoromethoxy)phenyl)-1H-1,2,4-triazol-3-yl)phenethyl (Z)-(3-(2-ethyl-6-methylphenyl)-4-oxothiazolidin-2-ylidene)carbamate], the mortality (as a rule, the percentage killed) at 50 µg/cm2 was 50 to 100% in experiment [1] (setting [3]) and 0% in experiment [2] (setting [3]).
As to `Cc1ccc(C(C)C)c(-n2ccs/c2=N\C(=O)OC(C)Cc2ccc(-c3ncn(-c4ccc(OC(F)(F)F)cc4)n3)cc2)c1` (centres unmarked) [A55, 1-(4-(1-(4-(Trifluoromethoxy)phenyl)-1H-1,2,4-triazol-3-yl)phenyl)propan-2-yl (Z)-(3-(2-isopropyl-5-methylphenyl)thiazol-2(3H)-ylidene)carbamate], the mortality at 50 µg/cm2 in experiment [1] (setting [3]) and in experiment [2] (setting [3]) was 50 to 100% in each case.
On to `CC(C)c1ccccc1N1C(=O)CS/C1=N\C(=O)OCC(F)c1ccc(-c2ncn(-c3ccc(OC(F)(F)C(F)(F)F)cc3)n2)cc1` (centres unmarked) [A24, 2-Fluoro-2-(4-(1-(4-(perfluoroethoxy)phenyl)-1H-1,2,4-triazol-3-yl)phenyl)ethyl (Z)-(3-(2-isopropylphenyl)-4-oxothiazolidin-2-ylidene)carbamate], for which the mortality at 50 µg/cm2 in experiment [1] (setting [3]) and in experiment [2] (setting [3]) was 50 to 100% each time.
As for `CCc1cccc(C)c1N1C(=O)CS/C1=N\C(=O)OC(C)Cc1ccc(-c2ncn(-c3ccc(OC(F)(F)F)cc3)n2)cc1` (centres unmarked) [A52, 1-(4-(1-(4-(Trifluoromethoxy)phenyl)-1H-1,2,4-triazol-3-yl)phenyl)propan-2-yl (Z)-(3-(2-ethyl-6-methylphenyl)-4-oxothiazolidin-2-ylidene)carbamate], the mortality at 50 µg/cm2 in experiment [1] (setting [3]) and in experiment [2] (setting [3]) was 50 to 100% throughout.
On to `O=C(/N=C1\SCC(=O)N1c1cccc2c1CCCC2)OCCc1ccc(-c2ncn(-c3ccc(OC(F)(F)F)cc3)n2)cc1` [A33, 4-(1-(4-(Trifluoromethoxy)phenyl)-1H-1,2,4-triazol-3-yl)phenethyl (Z)-(4-oxo-3-(5,6,7,8-tetrahydronaphthalen-1-yl)thiazolidin-2-ylidene)carbamate], for which the mortality at 50 µg/cm2 in experiment [1] (setting [3]) was 50 to 100%; in experiment [2] (setting [3]) it was 0%.
The like results for `CCOc1ccccc1N1C(=O)CS/C1=N\C(=O)OC(C)Cc1ccc(-c2ncn(-c3ccc(OC(F)(F)F)cc3)n2)cc1` (centres unmarked) [A51, 1-(4-(1-(4-(Trifluoromethoxy)phenyl)-1H-1,2,4-triazol-3-yl)phenyl)propan-2-yl (Z)-(3-(2-ethoxyphenyl)-4-oxothiazolidin-2-ylidene)carbamate] were, in that order, 50 to 100% and 50 to 100%.
As to `O=C(/N=C1\SCC(=O)N1c1cccc2c1CCCC2)OCC(F)c1ccc(-c2ncn(-c3ccc(OC(F)(F)F)cc3)n2)cc1` (centres unmarked) [A39, 2-Fluoro-2-(4-(1-(4-(trifluoromethoxy)phenyl)-1H-1,2,4-triazol-3-yl)phenyl)ethyl (Z)-(4-oxo-3-(5,6,7,8-tetrahydronaphthalen-1-yl)thiazolidin-2-ylidene)carbamate], the mortality at 50 µg/cm2 in experiment [1] (setting [3]) and in experiment [2] (setting [3]) was 50 to 100% throughout.
Consider `O=C(/N=C1\SCC(=O)N1c1cc(Cl)ccc1OCC(F)(F)F)OCCc1ccc(-c2ncn(-c3ccc(OC(F)(F)F)cc3)n2)cc1` [A30, 4-(1-(4-(Trifluoromethoxy)phenyl)-1H-1,2,4-triazol-3-yl)phenethyl (Z)-(3-(5-chloro-2-(2,2,2-trifluoroethoxy)phenyl)-4-oxothiazolidin-2-ylidene)carbamate], for which the mortality at 50 µg/cm2 in experiment [1] (setting [3]) and in experiment [2] (setting [3]) was 50 to 100% in each case.
Regarding `Cc1ccc(C(C)C)c(N2C(=O)CS/C2=N\C(=O)Oc2ccc(-c3ncn(-c4ccc(OC(F)(F)F)cc4)n3)cc2)c1` [A3, 4-(1-(4-(Trifluoromethoxy)phenyl)-1H-1,2,4-triazol-3-yl)phenyl (Z)-(3-(2-isopropyl-5-methylphenyl)-4-oxothiazolidin-2-ylidene)carbamate], the mortality at 50 µg/cm2 in experiment [1] and in experiment [2] was 0% throughout.
For `Cc1ccc(C(C)C)c(N2C(=O)CS/C2=N\C(=O)OCCc2ccc(-c3ncn(-c4ccc(OC(F)(F)C(F)(F)F)cc4)n3)cc2)c1` [A44, 4-(1-(4-(Perfluoroethoxy)phenyl)-1H-1,2,4-triazol-3-yl)phenethyl (Z)-(3-(2-isopropyl-5-methylphenyl)-4-oxothiazolidin-2-ylidene)carbamate], the mortality at 50 µg/cm2 in experiment [1] (setting [3]) and in experiment [2] (setting [3]) was 50 to 100% throughout.
For the compound `Cc1ccc(C(C)C)c(N2C(=O)CS/C2=N\C(=O)OCC(Cl)c2ccc(-c3ncn(-c4ccc(OC(F)(F)F)cc4)n3)cc2)c1` (centres unmarked) [A46, 2-Chloro-2-(4-(1-(4-(trifluoromethoxy)phenyl)-1H-1,2,4-triazol-3-yl)phenyl)ethyl (Z)-(3-(2-isopropyl-5-methylphenyl)-4-oxothiazolidin-2-ylidene)carbamate], the mortality at 50 µg/cm2 in experiment [1] (setting [3]) and in experiment [2] (setting [3]) was 50 to 100% throughout.
